# Experimental data taken from US20220378706A1, “PHARMACEUTICAL COMPOSITION COMPRISING PDE9 INHIBITOR” (Eisai R&D Management Co., Ltd., priority 2017, published 2022).
# Read-outs that look alike come from different tables or passages of the source.
# Test: Multiple ascending dose study: plasma pharmacokinetics
# Assay type: in vivo
# Conditions: human, po; for Tmax: read-out: tmax Median
# Description: Four sequential cohorts of healthy participants (≥50 years and ≤85 years old) were treated with multiple ascending doses of Compound A up to the maximum tolerated dose (MTD). A total of 6 participants per cohort were randomized to Compound A. Proposed doses of Compound A were:
# Participants received Compound A capsules, orally once daily (QD) on Days 1 to 14 after an overnight fast of at least 10 hours. Compound A was administered orally with 240 milliliter (mL) (8 fluid ounces) of water.
# 1) Maximum drug concentration (Cmax) [Time Frame: Day 1 and Day 14]
# Blood samples were collected on Day 1 at predose and postdose 0.5 (30 minutes), 1, 1.5, 2, 3, 4, 5, 6, 8, 12, and 18 hours; Day 14 (at predose and postdose 0.5, 1, 1.5, 2, 3, 4, 5, 6, 8, 12, and 18 hours); and Day 15 (24 hours postdose from Day 14).
# 2) Mean time to reach maximum (peak) drug concentration (tmax) [Time Frame: Day 1 and Day 14]
# 4) Mean area under the concentration-time curve from zero time extrapolated to infinity (AUC(0-inf)) [Time Frame: Day 14]
structure (smiles),measurement,setting,value
"COc1ncc(C)c(-c2ccc3c(c2)[nH]c(=O)c2cnn([C@H]4CCOC4)c23)c1C [Compound A, (S)-7-(2-methoxy-3,5-dimethylpyridin-4-yl)-1-(tetrahydrofuran-3-yl)-1H-pyrazolo[4,3-c]quin olin-4(5H)-one]",Cmax,"50 mg, Part C, 50 mg oral, read-out: Cmax GM (% CV)",594 ng/mL
same,Cmax,"50 mg, Part C, 50 mg oral, read-out: Cmax Mean (SD)",608 ng/mL
same,Cmax,"50 mg, Part C, 50 mg oral, read-out: Cmax Median",590 ng/mL
same,Tmax,"50 mg, Part C, 50 mg oral",1.98 h
same,AUC(0-t),"100 mg, Day 1, 100 mg QD oral, read-out: AUC(0-24 h) GM (% CV)",5230 ng·h/mL
same,AUC(0-t),"100 mg, Day 1, 100 mg QD oral, read-out: AUC(0-24 h) Mean (SD)",5250 ng·h/mL
same,AUC(0-t),"100 mg, Day 1, 100 mg QD oral, read-out: AUC(0-24 h) Median",5180 ng·h/mL
same,Cmax,"100 mg, Day 1, 100 mg QD oral, read-out: Cmax GM (% CV)",366 ng/mL
same,Cmax,"100 mg, Day 1, 100 mg QD oral, read-out: Cmax Mean (SD)",373 ng/mL
same,Cmax,"100 mg, Day 1, 100 mg QD oral, read-out: Cmax Median",344 ng/mL
same,Tmax,"100 mg, Day 1, 100 mg QD oral",2.53 h
same,AUC(0-t),"100 mg, Day 14, 100 mg QD oral, read-out: AUC(0-24 h) GM (% CV)",16600 ng·h/mL
same,AUC(0-t),"100 mg, Day 14, 100 mg QD oral, read-out: AUC(0-24 h) Mean (SD)",16900 ng·h/mL
same,AUC(0-t),"100 mg, Day 14, 100 mg QD oral, read-out: AUC(0-24 h) Median",16800 ng·h/mL
same,AUC(0-inf),"100 mg, Day 14, 100 mg QD oral, read-out: AUC(0-inf) GM (% CV)",56400 ng·h/mL
same,AUC(0-inf),"100 mg, Day 14, 100 mg QD oral, read-out: AUC(0-inf) Mean (SD)",58600 ng·h/mL
same,AUC(0-inf),"100 mg, Day 14, 100 mg QD oral, read-out: AUC(0-inf) Median",62700 ng·h/mL
same,Cmax,"100 mg, Day 14, 100 mg QD oral, read-out: Cmax GM (% CV)",1010 ng/mL
same,Cmax,"100 mg, Day 14, 100 mg QD oral, read-out: Cmax Mean (SD)",1020 ng/mL
same,Cmax,"100 mg, Day 14, 100 mg QD oral, read-out: Cmax Median",1030 ng/mL
same,Tmax,"100 mg, Day 14, 100 mg QD oral",2.56 h
same,AUC(0-t),"200 mg, Day 1, 200 mg QD oral, read-out: AUC(0-24 h) GM (% CV)",8650 ng·h/mL
same,AUC(0-t),"200 mg, Day 1, 200 mg QD oral, read-out: AUC(0-24 h) Mean (SD)",9050 ng·h/mL
same,AUC(0-t),"200 mg, Day 1, 200 mg QD oral, read-out: AUC(0-24 h) Median",10400 ng·h/mL
same,Cmax,"200 mg, Day 1, 200 mg QD oral, read-out: Cmax GM (% CV)",687 ng/mL
same,Cmax,"200 mg, Day 1, 200 mg QD oral, read-out: Cmax Mean (SD)",740 ng/mL
same,Cmax,"200 mg, Day 1, 200 mg QD oral, read-out: Cmax Median",813 ng/mL
same,Tmax,"200 mg, Day 1, 200 mg QD oral",2.01 h
same,AUC(0-t),"200 mg, Day 14, 200 mg QD oral, read-out: AUC(0-24 h) GM (% CV)",22800 ng·h/mL
same,AUC(0-t),"200 mg, Day 14, 200 mg QD oral, read-out: AUC(0-24 h) Mean (SD)",23100 ng·h/mL
same,AUC(0-t),"200 mg, Day 14, 200 mg QD oral, read-out: AUC(0-24 h) Median",21300 ng·h/mL
same,AUC(0-inf),"200 mg, Day 14, 200 mg QD oral, read-out: AUC(0-inf) GM (% CV)",70500 ng·h/mL
same,AUC(0-inf),"200 mg, Day 14, 200 mg QD oral, read-out: AUC(0-inf) Mean (SD)",72200 ng·h/mL
same,AUC(0-inf),"200 mg, Day 14, 200 mg QD oral, read-out: AUC(0-inf) Median",61900 ng·h/mL
same,Cmax,"200 mg, Day 14, 200 mg QD oral, read-out: Cmax GM (% CV)",1680 ng/mL
same,Cmax,"200 mg, Day 14, 200 mg QD oral, read-out: Cmax Mean (SD)",1730 ng/mL
same,Cmax,"200 mg, Day 14, 200 mg QD oral, read-out: Cmax Median",1950 ng/mL
same,Tmax,"200 mg, Day 14, 200 mg QD oral",2 h
same,AUC(0-t),"400 mg, Day 1, 400 mg QD oral, Japanese, read-out: AUC(0-24 h) GM (% CV)",18300 ng·h/mL
same,AUC(0-t),"400 mg, Day 1, 400 mg QD oral, Japanese, read-out: AUC(0-24 h) Mean (SD)",18400 ng·h/mL
same,AUC(0-t),"400 mg, Day 1, 400 mg QD oral, Japanese, read-out: AUC(0-24 h) Median",18900 ng·h/mL
same,Cmax,"400 mg, Day 1, 400 mg QD oral, Japanese, read-out: Cmax GM (% CV)",1510 ng/mL
same,Cmax,"400 mg, Day 1, 400 mg QD oral, Japanese, read-out: Cmax Mean (SD)",1520 ng/mL
same,Cmax,"400 mg, Day 1, 400 mg QD oral, Japanese, read-out: Cmax Median",1510 ng/mL
same,Tmax,"400 mg, Day 1, 400 mg QD oral, Japanese",2 h
same,AUC(0-t),"400 mg, Day 1, 400 mg QD oral, Non-Japanese, read-out: AUC(0-24 h) GM (% CV)",14500 ng·h/mL
same,AUC(0-t),"400 mg, Day 1, 400 mg QD oral, Non-Japanese, read-out: AUC(0-24 h) Mean (SD)",14600 ng·h/mL
same,AUC(0-t),"400 mg, Day 1, 400 mg QD oral, Non-Japanese, read-out: AUC(0-24 h) Median",14700 ng·h/mL
same,Cmax,"400 mg, Day 1, 400 mg QD oral, Non-Japanese, read-out: Cmax GM (% CV)",1100 ng/mL
same,Cmax,"400 mg, Day 1, 400 mg QD oral, Non-Japanese, read-out: Cmax Mean (SD)",1100 ng/mL
same,Cmax,"400 mg, Day 1, 400 mg QD oral, Non-Japanese, read-out: Cmax Median",1140 ng/mL
same,Tmax,"400 mg, Day 1, 400 mg QD oral, Non-Japanese",1.76 h
same,AUC(0-t),"400 mg, Day 14, 400 mg QD oral, Japanese, read-out: AUC(0-24 h) GM (% CV)",42700 ng·h/mL
same,AUC(0-t),"400 mg, Day 14, 400 mg QD oral, Japanese, read-out: AUC(0-24 h) Mean (SD)",42900 ng·h/mL
same,AUC(0-t),"400 mg, Day 14, 400 mg QD oral, Japanese, read-out: AUC(0-24 h) Median",43200 ng·h/mL
same,AUC(0-inf),"400 mg, Day 14, 400 mg QD oral, Japanese, read-out: AUC(0-inf) GM (% CV)",122000 ng·h/mL
same,AUC(0-inf),"400 mg, Day 14, 400 mg QD oral, Japanese, read-out: AUC(0-inf) Mean (SD)",125000 ng·h/mL
same,AUC(0-inf),"400 mg, Day 14, 400 mg QD oral, Japanese, read-out: AUC(0-inf) Median",120000 ng·h/mL
same,Cmax,"400 mg, Day 14, 400 mg QD oral, Japanese, read-out: Cmax GM (% CV)",3080 ng/mL
same,Cmax,"400 mg, Day 14, 400 mg QD oral, Japanese, read-out: Cmax Mean (SD)",3100 ng/mL
same,Cmax,"400 mg, Day 14, 400 mg QD oral, Japanese, read-out: Cmax Median",3250 ng/mL
same,Tmax,"400 mg, Day 14, 400 mg QD oral, Japanese",1.5 h
same,AUC(0-t),"400 mg, Day 14, 400 mg QD oral, Non-Japanese, read-out: AUC(0-24 h) GM (% CV)",39200 ng·h/mL
same,AUC(0-t),"400 mg, Day 14, 400 mg QD oral, Non-Japanese, read-out: AUC(0-24 h) Mean (SD)",40300 ng·h/mL
same,AUC(0-t),"400 mg, Day 14, 400 mg QD oral, Non-Japanese, read-out: AUC(0-24 h) Median",43900 ng·h/mL
same,AUC(0-inf),"400 mg, Day 14, 400 mg QD oral, Non-Japanese, read-out: AUC(0-inf) GM (% CV)",121000 ng·h/mL
same,AUC(0-inf),"400 mg, Day 14, 400 mg QD oral, Non-Japanese, read-out: AUC(0-inf) Mean (SD)",135000 ng·h/mL
same,AUC(0-inf),"400 mg, Day 14, 400 mg QD oral, Non-Japanese, read-out: AUC(0-inf) Median",141000 ng·h/mL
same,Cmax,"400 mg, Day 14, 400 mg QD oral, Non-Japanese, read-out: Cmax GM (% CV)",2740 ng/mL
same,Cmax,"400 mg, Day 14, 400 mg QD oral, Non-Japanese, read-out: Cmax Mean (SD)",2820 ng/mL
same,Cmax,"400 mg, Day 14, 400 mg QD oral, Non-Japanese, read-out: Cmax Median",3050 ng/mL
same,Tmax,"400 mg, Day 14, 400 mg QD oral, Non-Japanese",1.79 h
